The results in this text go back to patent US20200079793A1, “COMPOUNDS AND METHODS FOR MODULATING ADENOSINE A2B RECEPTOR AND ADENOSINE A2A RECEPTOR” (CORVUS PHARMACEUTICALS, INC., priority 2018, published 2020).

Experiment [1] concerns the target T1, A3R (Homo sapiens, UniProt P0DMS8).
T1 sequence (P0DMS8 1-318): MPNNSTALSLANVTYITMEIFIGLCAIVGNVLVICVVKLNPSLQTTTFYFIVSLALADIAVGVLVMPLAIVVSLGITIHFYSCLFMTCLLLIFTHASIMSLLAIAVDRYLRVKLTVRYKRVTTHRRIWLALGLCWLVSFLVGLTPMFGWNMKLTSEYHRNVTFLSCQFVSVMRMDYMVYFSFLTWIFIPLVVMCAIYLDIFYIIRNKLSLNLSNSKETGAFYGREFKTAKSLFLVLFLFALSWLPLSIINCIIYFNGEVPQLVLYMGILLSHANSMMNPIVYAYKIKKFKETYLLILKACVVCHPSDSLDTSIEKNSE
The experiment can be described thus: Activity assay of adenosine receptor modulators, A3R cAMP (Table 1). It is filed as cell-based. The procedure: (§1) Compounds (e.g., adenosine receptor modulators) were tested for its biological activity. The assay results in Table 1 indicate (+ means >1 μM; ++ means 100 nM to 1 μM; +++ means <100 nM).

The target in experiment [2] is T2, A1R (Homo sapiens, UniProt P30542).
T2 sequence (P30542 1-326): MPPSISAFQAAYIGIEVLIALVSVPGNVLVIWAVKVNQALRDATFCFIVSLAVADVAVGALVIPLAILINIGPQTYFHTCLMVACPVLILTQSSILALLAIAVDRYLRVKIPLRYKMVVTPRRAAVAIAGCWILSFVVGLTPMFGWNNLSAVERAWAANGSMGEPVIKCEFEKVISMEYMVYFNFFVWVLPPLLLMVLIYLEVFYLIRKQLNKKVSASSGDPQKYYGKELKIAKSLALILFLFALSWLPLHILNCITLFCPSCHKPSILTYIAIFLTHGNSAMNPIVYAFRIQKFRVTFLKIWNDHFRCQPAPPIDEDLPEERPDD
The experiment can be described thus: Activity assay of adenosine receptor modulators, A1R cAMP (Table 1). It is filed as cell-based. Here is the method: as §1

Experiment [3] addresses Adenosine A2A Receptor (Homo sapiens, UniProt P29274). The experiment is described as follows: Activity assay of adenosine receptor modulators, Adenosine A2A Receptor (Table 1). The experiment is classed as biochemical. The conditions noted are these: cAMP; read-out: A2AR cAMP IC50. Here is the method: as §1
For experiment [4], the target named is T3, Adenosine A2B Receptor (Homo sapiens, UniProt P29275).
T3 sequence (P29275 1-332): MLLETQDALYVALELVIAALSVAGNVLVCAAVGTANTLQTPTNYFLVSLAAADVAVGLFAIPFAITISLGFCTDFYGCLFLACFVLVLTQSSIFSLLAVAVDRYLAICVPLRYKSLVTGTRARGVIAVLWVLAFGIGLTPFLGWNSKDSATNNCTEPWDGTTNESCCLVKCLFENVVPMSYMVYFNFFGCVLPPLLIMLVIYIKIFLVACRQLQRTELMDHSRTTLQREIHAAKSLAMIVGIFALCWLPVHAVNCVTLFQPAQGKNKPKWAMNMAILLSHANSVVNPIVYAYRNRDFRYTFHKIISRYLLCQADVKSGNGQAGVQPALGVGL
The experiment can be described thus: Activity assay of adenosine receptor modulators, Adenosine A2B Receptor (Table 1). It is filed as biochemical. The following applies: cAMP; read-out: A2BR cAMP IC50. The procedure:
as §1

Chain of Adenosine A2A Receptor (P29274 whole entry): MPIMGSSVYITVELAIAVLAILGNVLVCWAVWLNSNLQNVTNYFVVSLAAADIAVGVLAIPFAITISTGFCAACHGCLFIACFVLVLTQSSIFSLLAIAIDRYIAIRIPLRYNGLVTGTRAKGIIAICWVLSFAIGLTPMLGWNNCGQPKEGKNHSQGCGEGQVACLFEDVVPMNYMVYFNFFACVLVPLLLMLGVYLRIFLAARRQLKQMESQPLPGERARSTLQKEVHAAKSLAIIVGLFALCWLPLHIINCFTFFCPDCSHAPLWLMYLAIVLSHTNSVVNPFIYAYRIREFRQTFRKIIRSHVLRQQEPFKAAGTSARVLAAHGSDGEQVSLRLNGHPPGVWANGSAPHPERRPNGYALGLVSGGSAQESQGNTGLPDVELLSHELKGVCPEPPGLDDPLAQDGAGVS

On to `Cc1nc2nc(N[C@@H](C)c3cncc(F)c3)nc(C(=O)N3CC[C@@H](CO)C3)c2s1` [Example 49, (5-(((S)-1-(5-Fluoropyridin-3-yl)ethyl)amino)-2-methylthiazolo[4,5-d]pyrimidin-7-yl)((R)-3-(hydroxymethyl)pyrrolidin-1-yl)methanone], for which the IC50 in experiment [1] is above 1000 nM; in experiment [2], above 1000 nM; in experiment [3], above 1000 nM; in experiment [4], below 100 nM.
Consider `Cc1nc2nc(N[C@@H](C)c3cccnc3)nc(C(=O)N3CC(NC(=O)C(C)(C)C)C3)c2s1` [Example 64, (S)—N-(1-(2-Methyl-5-((1-(pyridin-3-yl)ethyl)amino)thiazolo[4,5-d]pyrimidine-7-carbonyl)azetidin-3-yl)pivalamide], for which the 50% inhibitory concentration (IC50) in experiment [1] is 100 to 1000 nM; in experiment [2], above 1000 nM; in experiment [3] it was below 100 nM; in experiment [4], 100 to 1000 nM.
Take `Cc1nc2nc(N[C@@H](C)c3cncc(F)c3)nc(C(=O)N3CC(NC(=O)C4CCOC4)C3)c2s1` (stereo partly drawn) [Example 45, N-(1-(5-(((S)-1-(5-Fluoropyridin-3-yl)ethyl)amino)-2-methylthiazolo[4,5-d]pyrimidine-7-carbonyl)azetidin-3-yl)tetrahydrofuran-3-carboxamide]: the IC50 in experiment [3] and in experiment [4] was 100 to 1000 nM each time.
Regarding `Cc1nc2nc(N[C@@H](C)c3cncc(F)c3)nc(C(=O)N3CC(NC(=O)C4CCCC4)C3)c2s1` [Example 55, (S)—N-(1-(5-((1-(5-Fluoropyridin-3-yl)ethyl)amino)-2-methylthiazolo[4,5-d]pyrimidine-7-carbonyl)azetidin-3-yl)cyclopentanecarboxamide], the IC50 in experiment [1] is below 100 nM; in experiment [2] it was above 1000 nM; in experiment [3] it was below 100 nM; in experiment [4], below 100 nM.
Consider `Cc1nc2nc(N[C@@H](C)c3ccccn3)nc(C(=O)NC(C)C)c2s1` [Example 10, (S)—N-Isopropyl-2-methyl-5-((1-(pyridin-2-yl)ethyl)amino)thiazolo[4,5-d]pyrimidine-7-carboxamide], for which the IC50 is 100 to 1000 nM in experiment [3] and below 100 nM in experiment [4].
For `CC(=O)N[C@@H]1CCN(C(=O)c2nc(N[C@@H](C)c3cncc(F)c3)nc3nc(C)sc23)C1` [Example 30, N—((R)-1-(5-(((S)-1-(5-Fluoropyridin-3-yl)ethyl)amino)-2-methylthiazolo[4,5-d]pyrimidine-7-carbonyl)pyrrolidin-3-yl)acetamide], the IC50 in experiment [1] is above 1000 nM; in experiment [2] it was above 1000 nM; in experiment [3] it was above 1000 nM; in experiment [4], 100 to 1000 nM.
For the compound `Cc1nc2nc(N[C@@H](C)c3cccnc3)nc(C(=O)N[C@@H](C)c3cccnc3)c2s1` [Example 27, 2-Methyl-N—((S)-1-(pyridin-3-yl)ethyl)-5-(((S)-1-(pyridin-3-yl)ethyl)amino)thiazolo[4,5-d]pyrimidine-7-carboxamide], the IC50 in experiment [3] and in experiment [4] was 100 to 1000 nM each time.
Consider `Cc1nc2nc(N[C@@H](C)c3cncc(F)c3)nc(C(=O)N3CC(NC(=O)C4CCCCC4)C3)c2s1` [Example 61, (S)—N-(1-(5-((1-(5-Fluoropyridin-3-yl)ethyl)amino)-2-methylthiazolo[4,5-d]pyrimidine-7-carbonyl)azetidin-3-yl)cyclohexanecarboxamide], for which the half-maximal inhibitory concentration (IC50) in experiment [1] was below 100 nM; in experiment [2], above 1000 nM; in experiment [3], below 100 nM; in experiment [4], below 100 nM.
In the case of `Cc1nc2nc(N[C@@H](C)c3cncc(F)c3)nc(C(=O)N3CC[C@H](N)C3)c2s1` [Example 43, ((S)-3-Aminopyrrolidin-1-yl)(5-(((S)-1-(5-fluoropyridin-3-yl)ethyl)amino)-2-methylthiazolo[4,5-d]pyrimidin-7-yl)methanone], the IC50 in experiment [3] is above 1000 nM; in experiment [4], 100 to 1000 nM.
For the compound `C[C@H](Nc1nc(C(=O)N2CCCC2)c2sc(N)nc2n1)c1cccnc1` [Example 20, (S)-(2-Amino-5-((1-(pyridin-3-yl)ethyl)amino)thiazolo[4,5-d]pyrimidin-7-yl)(pyrrolidin-1-yl)methanone], the IC50 in experiment [3] was above 1000 nM; in experiment [4], 100 to 1000 nM.
As for `Cc1nc2nc(N[C@@H](C)c3cncc(F)c3)nc(C(=O)NCCNC(=O)NC(C)(C)C)c2s1` [Example 36, (S)—N-(2-(3-(tert-butyl)ureido)ethyl)-5-((1-(5-fluoropyridin-3-yl)ethyl)amino)-2-methylthiazolo[4,5-d]pyrimidine-7-carboxamide], the IC50 in experiment [3] was 100 to 1000 nM; in experiment [4] it was above 1000 nM.
Regarding `Cc1nc2nc(N[C@@H](C)c3ccccn3)nc(C(=O)N3CC[C@@H](O)C3)c2s1` [Example 19, ((R)-3-Hydroxypyrrolidin-1-yl)(2-methyl-5-(((S)-1-(pyridin-2-yl)ethyl)amino)thiazolo[4,5-d]pyrimidin-7-yl)methanone], the IC50 was above 1000 nM in experiment [3] and below 100 nM in experiment [4].
`Cc1nc2nc(N[C@@H](C)c3cncc(F)c3)nc(C(=O)NCCN3CCOCC3)c2s1` [Example 46, (S)-5-((1-(5-Fluoropyridin-3-yl)ethyl)amino)-2-methyl-N-(2-morpholinoethyl)thiazolo[4,5-d]pyrimidine-7-carboxamide]: the half-maximal inhibitory concentration (IC50) is above 1000 nM in experiment [3] and 100 to 1000 nM in experiment [4].
Consider `Cc1nc2nc(N[C@@H](C)c3cncc(F)c3)nc(C(=O)N3CC(C(=O)N(C)C)C3)c2s1` [Example 26, (S)-1-(5-((1-(5-Fluoropyridin-3-yl)ethyl)amino)-2-methylthiazolo[4,5-d]pyrimidine-7-carbonyl)-N,N-dimethylazetidine-3-carboxamide], for which the IC50 in experiment [3] is above 1000 nM; in experiment [4], below 100 nM.
With `CC(=O)N(C)C1CN(C(=O)c2nc(N[C@@H](C)c3cncc(F)c3)nc3nc(C)sc23)C1` [Example 44, (S)—N-(1-(5-((1-(5-Fluoropyridin-3-yl)ethyl)amino)-2-methylthiazolo[4,5-d]pyrimidine-7-carbonyl)azetidin-3-yl)-N-methylacetamide], the values for the half-inhibitory concentration (IC50) in experiment [3] and in experiment [4] were above 1000 nM and 100 to 1000 nM, respectively.
Turning to `Cc1nc2nc(N[C@@H](C)c3cncc(F)c3)nc(C(=O)N3CCN(C(=O)NC(C)(C)C)C3)c2s1` [Example 35, (S)—N-(tert-Butyl)-3-(5-((1-(5-fluoropyridin-3-yl)ethyl)amino)-2-methylthiazolo[4,5-d]pyrimidine-7-carbonyl)imidazolidine-1-carboxamide], the IC50 in experiment [3] and in experiment [4] was 100 to 1000 nM throughout.
Consider `Cc1nc2nc(N[C@@H](C)c3cncc(F)c3)nc(C(=O)N3CC[C@@H](N)C3)c2s1` [Example 42, ((R)-3-Aminopyrrolidin-1-yl)(5-(((S)-1-(5-fluoropyridin-3-yl)ethyl)amino)-2-methylthiazolo[4,5-d]pyrimidin-7-yl)methanone], for which the IC50 in experiment [3] was above 1000 nM; in experiment [4] it was 100 to 1000 nM.
The matching figures for `Cc1nc2nc(N[C@@H](C)c3cncc(F)c3)nc(C(=O)NCc3cccnc3)c2s1` [Example 23, (S)-5-((1-(5-Fluoropyridin-3-yl)ethyl)amino)-2-methyl-N-(pyridin-3-ylmethyl)thiazolo[4,5-d]pyrimidine-7-carboxamide]: 100 to 1000 nM and below 100 nM.
In the case of `Cc1nc2nc(N[C@@H](C)c3cncc(F)c3)nc(C(=O)NCCC3CCN(C(=O)OC(C)(C)C)CC3)c2s1` [Example 22, tert-Butyl (S)-4-(2-(5-((1-(5-fluoropyridin-3-yl)ethyl)amino)-2-methylthiazolo[4,5-d]pyrimidine-7-carboxamido)ethyl)piperidine-1-carboxylate], the IC50 in experiment [3] is above 1000 nM; in experiment [4], 100 to 1000 nM.
As for `Cc1nc2nc(N[C@@H](C)c3cncc(F)c3)nc(C(=O)N3CCN(C(=O)CC(C)(C)C)C3)c2s1` [Example 34, (S)-1-(3-(5-((1-(5-Fluoropyridin-3-yl)ethyl)amino)-2-methylthiazolo[4,5-d]pyrimidine-7-carbonyl)imidazolidin-1-yl)-3,3-dimethylbutan-1-one], the figures for the IC50 in experiment [3] and in experiment [4] were above 1000 nM and 100 to 1000 nM, respectively.
